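Results reflect a 48-hour exposure of cells in 96-well plates to compound at five concentrations. Abbreviation: GI50, concentration required for 50% inhibition of growth. TGI: concentration producing complete growth inhibition.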
Columns and labels:
Assay in all cases: inhibition of tumour cell growth, NCI panel, 48 h
786-0 renal = tested on: 786-0 renal
A498 renal = tested on: A498 renal
A549 NSCLC = tested on: A549 NSCLC
ACHN renal = tested on: ACHN renal
BT-549 breast = tested on: BT-549 breast
CAKI-1 renal = tested on: CAKI-1 renal
CCRF-CEM leukemia = tested on: CCRF-CEM leukemia
COLO 205 colon = tested on: COLO 205 colon
DU-145 prostate = tested on: DU-145 prostate
EKVX NSCLC = tested on: EKVX NSCLC
HCC-2998 colon = tested on: HCC-2998 colon
HCT-116 colon = tested on: HCT-116 colon
HCT-15 colon = tested on: HCT-15 colon
HL-60(TB) leukemia = tested on: HL-60(TB) leukemia
HOP-62 NSCLC = tested on: HOP-62 NSCLC
HOP-92 NSCLC = tested on: HOP-92 NSCLC
HS 578T breast = tested on: HS 578T breast
HT29 colon = tested on: HT29 colon
IGROV1 ovarian = tested on: IGROV1 ovarian
K-562 leukemia = tested on: K-562 leukemia
KM12 colon = tested on: KM12 colon
LOX IMVI melanoma = tested on: LOX IMVI melanoma
M14 melanoma = tested on: M14 melanoma
MALME-3M melanoma = tested on: MALME-3M melanoma
MCF7 breast = tested on: MCF7 breast
MDA-MB-231 breast = tested on: MDA-MB-231 breast
MDA-MB-435 = tested on: MDA-MB-435
MDA-MB-468 breast = tested on: MDA-MB-468 breast
MOLT-4 leukemia = tested on: MOLT-4 leukemia
NCI-H226 lung = tested on: NCI-H226 lung

SMILES: Nc1nc(-c2ccccc2)c(N=Nc2ccc(Cl)cc2Cl)s1
- GI50 (786-0 renal): 2.48 µM
- TGI (786-0 renal): 6.34 µM
- GI50 (A498 renal): 6.03 µM
- TGI (A498 renal): 18.4 µM
- GI50 (A549 NSCLC): 3.67 µM
- TGI (A549 NSCLC): 14.7 µM
- GI50 (ACHN renal): 2.81 µM
- TGI (ACHN renal): 12.9 µM
- GI50 (BT-549 breast): 2.43 µM
- TGI (BT-549 breast): 9.74 µM
- GI50 (CAKI-1 renal): 2.52 µM
- TGI (CAKI-1 renal): 12.3 µM
- GI50 (CCRF-CEM leukemia): 3.13 µM
- TGI (CCRF-CEM leukemia): 11 µM
- GI50 (COLO 205 colon): 3.91 µM
- TGI (COLO 205 colon): 14.1 µM
- GI50 (DU-145 prostate): 5.52 µM
- TGI (DU-145 prostate): 17.8 µM
- GI50 (EKVX NSCLC): 2.04 µM
- TGI (EKVX NSCLC): 12.3 µM
- GI50 (HCC-2998 colon): 1.84 µM
- TGI (HCC-2998 colon): 5.41 µM
- GI50 (HCT-116 colon): 3.33 µM
- TGI (HCT-116 colon): 12.6 µM
- GI50 (HCT-15 colon): 2.81 µM
- TGI (HCT-15 colon): 11.7 µM
- GI50 (HL-60(TB) leukemia): 3.42 µM
- TGI (HL-60(TB) leukemia): 12.9 µM
- GI50 (HOP-62 NSCLC): 4.01 µM
- TGI (HOP-62 NSCLC): 18.4 µM
- GI50 (HOP-92 NSCLC): 1.85 µM
- TGI (HOP-92 NSCLC): 5.86 µM
- GI50 (HS 578T breast): 3.14 µM
- TGI (HS 578T breast): 17.8 µM
- GI50 (HT29 colon): 3.31 µM
- TGI (HT29 colon): 10.9 µM
- GI50 (IGROV1 ovarian): 2.13 µM
- TGI (IGROV1 ovarian): 12.7 µM
- GI50 (K-562 leukemia): 3.58 µM
- TGI (K-562 leukemia): 14.9 µM
- GI50 (KM12 colon): 2.99 µM
- TGI (KM12 colon): 12.8 µM
- GI50 (LOX IMVI melanoma): 1.83 µM
- TGI (LOX IMVI melanoma): 5.17 µM
- GI50 (M14 melanoma): 2.88 µM
- TGI (M14 melanoma): 9.54 µM
- GI50 (MALME-3M melanoma): 5.38 µM
- TGI (MALME-3M melanoma): 18.1 µM
- GI50 (MCF7 breast): 2.16 µM
- TGI (MCF7 breast): 10.9 µM
- GI50 (MDA-MB-231 breast): 2.19 µM
- TGI (MDA-MB-231 breast): 8.67 µM
- GI50 (MDA-MB-435): 3.74 µM
- TGI (MDA-MB-435): 14.4 µM
- GI50 (MDA-MB-468 breast): 0.83 µM
- TGI (MDA-MB-468 breast): 3.88 µM
- GI50 (MOLT-4 leukemia): 2.73 µM
- TGI (MOLT-4 leukemia): 10.3 µM
- GI50 (NCI-H226 lung): 2.11 µM
